Reference: ChEMBL document CHEMBL5303766, “Data for DCP probe FHT-2344” (2022)

Experiments:
Details in all cases: for ΔTm: Compound concentration 10.0 uM
[1] = molecular target: Ephrin type-A receptor 2 (Homo sapiens) (UniProt P29317); test: EPHA2 SGC Tm panel (DSF)
[2] = molecular target: T1, Myotonin-protein kinase (Homo sapiens) (UniProt Q09013); test: DMPK SGC Tm panel (DSF)
T1 sequence (whole entry): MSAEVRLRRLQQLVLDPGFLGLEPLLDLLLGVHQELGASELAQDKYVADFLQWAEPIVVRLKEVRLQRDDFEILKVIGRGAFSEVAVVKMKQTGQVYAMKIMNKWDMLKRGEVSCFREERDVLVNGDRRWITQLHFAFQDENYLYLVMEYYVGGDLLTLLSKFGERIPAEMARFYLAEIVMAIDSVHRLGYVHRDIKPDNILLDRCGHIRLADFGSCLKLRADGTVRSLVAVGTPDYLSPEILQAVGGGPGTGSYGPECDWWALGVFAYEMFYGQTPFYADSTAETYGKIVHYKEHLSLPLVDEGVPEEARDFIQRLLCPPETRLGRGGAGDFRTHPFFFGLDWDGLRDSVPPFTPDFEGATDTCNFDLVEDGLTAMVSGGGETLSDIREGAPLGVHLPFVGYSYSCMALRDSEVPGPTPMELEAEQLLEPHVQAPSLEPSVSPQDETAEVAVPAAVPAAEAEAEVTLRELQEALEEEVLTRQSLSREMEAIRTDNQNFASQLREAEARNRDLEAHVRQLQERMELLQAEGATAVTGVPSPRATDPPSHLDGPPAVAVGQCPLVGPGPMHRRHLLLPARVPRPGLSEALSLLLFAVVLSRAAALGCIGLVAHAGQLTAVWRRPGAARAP

[3] = molecular target: Mitogen-activated protein kinase 14 (Homo sapiens) (UniProt Q16539); test: MAPK14 SGC Tm panel (DSF)
Mitogen-activated protein kinase 14 (Homo sapiens), sequence (Q16539 whole entry): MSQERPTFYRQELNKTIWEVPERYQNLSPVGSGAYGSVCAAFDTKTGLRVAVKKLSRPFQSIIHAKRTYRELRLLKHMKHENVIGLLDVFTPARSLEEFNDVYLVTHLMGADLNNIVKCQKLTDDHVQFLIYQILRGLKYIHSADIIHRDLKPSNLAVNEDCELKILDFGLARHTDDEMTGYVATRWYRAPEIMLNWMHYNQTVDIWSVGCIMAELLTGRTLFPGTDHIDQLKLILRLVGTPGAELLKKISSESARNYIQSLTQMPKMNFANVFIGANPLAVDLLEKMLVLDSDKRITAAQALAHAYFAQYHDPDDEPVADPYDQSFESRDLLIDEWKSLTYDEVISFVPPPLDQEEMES

[4] = molecular target: Mitogen-activated protein kinase 9 (Homo sapiens) (UniProt P45984); test: MAPK9 SGC Tm panel (DSF)
Mitogen-activated protein kinase 9 (Homo sapiens), sequence (P45984 whole entry, looked up): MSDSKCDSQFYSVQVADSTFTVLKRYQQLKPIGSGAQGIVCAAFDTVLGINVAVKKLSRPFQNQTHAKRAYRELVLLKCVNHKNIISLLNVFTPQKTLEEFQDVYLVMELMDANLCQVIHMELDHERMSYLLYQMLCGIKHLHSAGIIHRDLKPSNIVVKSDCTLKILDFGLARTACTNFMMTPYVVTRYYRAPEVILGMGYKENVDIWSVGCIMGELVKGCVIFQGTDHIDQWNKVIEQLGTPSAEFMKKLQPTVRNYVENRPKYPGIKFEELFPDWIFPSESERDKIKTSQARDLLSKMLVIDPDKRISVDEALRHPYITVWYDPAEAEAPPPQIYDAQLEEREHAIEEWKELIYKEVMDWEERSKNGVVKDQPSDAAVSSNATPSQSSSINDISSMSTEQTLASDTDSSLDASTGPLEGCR

[5] = molecular target: Serine/threonine-protein kinase pim-3 (Homo sapiens) (UniProt Q86V86); test: PIM3 SGC Tm panel (DSF)
[6] = molecular target: Vascular endothelial growth factor receptor 1 (Homo sapiens) (UniProt P17948); test: FLT1 SGC Tm panel (DSF)
Vascular endothelial growth factor receptor 1 (Homo sapiens), sequence (P17948 whole entry): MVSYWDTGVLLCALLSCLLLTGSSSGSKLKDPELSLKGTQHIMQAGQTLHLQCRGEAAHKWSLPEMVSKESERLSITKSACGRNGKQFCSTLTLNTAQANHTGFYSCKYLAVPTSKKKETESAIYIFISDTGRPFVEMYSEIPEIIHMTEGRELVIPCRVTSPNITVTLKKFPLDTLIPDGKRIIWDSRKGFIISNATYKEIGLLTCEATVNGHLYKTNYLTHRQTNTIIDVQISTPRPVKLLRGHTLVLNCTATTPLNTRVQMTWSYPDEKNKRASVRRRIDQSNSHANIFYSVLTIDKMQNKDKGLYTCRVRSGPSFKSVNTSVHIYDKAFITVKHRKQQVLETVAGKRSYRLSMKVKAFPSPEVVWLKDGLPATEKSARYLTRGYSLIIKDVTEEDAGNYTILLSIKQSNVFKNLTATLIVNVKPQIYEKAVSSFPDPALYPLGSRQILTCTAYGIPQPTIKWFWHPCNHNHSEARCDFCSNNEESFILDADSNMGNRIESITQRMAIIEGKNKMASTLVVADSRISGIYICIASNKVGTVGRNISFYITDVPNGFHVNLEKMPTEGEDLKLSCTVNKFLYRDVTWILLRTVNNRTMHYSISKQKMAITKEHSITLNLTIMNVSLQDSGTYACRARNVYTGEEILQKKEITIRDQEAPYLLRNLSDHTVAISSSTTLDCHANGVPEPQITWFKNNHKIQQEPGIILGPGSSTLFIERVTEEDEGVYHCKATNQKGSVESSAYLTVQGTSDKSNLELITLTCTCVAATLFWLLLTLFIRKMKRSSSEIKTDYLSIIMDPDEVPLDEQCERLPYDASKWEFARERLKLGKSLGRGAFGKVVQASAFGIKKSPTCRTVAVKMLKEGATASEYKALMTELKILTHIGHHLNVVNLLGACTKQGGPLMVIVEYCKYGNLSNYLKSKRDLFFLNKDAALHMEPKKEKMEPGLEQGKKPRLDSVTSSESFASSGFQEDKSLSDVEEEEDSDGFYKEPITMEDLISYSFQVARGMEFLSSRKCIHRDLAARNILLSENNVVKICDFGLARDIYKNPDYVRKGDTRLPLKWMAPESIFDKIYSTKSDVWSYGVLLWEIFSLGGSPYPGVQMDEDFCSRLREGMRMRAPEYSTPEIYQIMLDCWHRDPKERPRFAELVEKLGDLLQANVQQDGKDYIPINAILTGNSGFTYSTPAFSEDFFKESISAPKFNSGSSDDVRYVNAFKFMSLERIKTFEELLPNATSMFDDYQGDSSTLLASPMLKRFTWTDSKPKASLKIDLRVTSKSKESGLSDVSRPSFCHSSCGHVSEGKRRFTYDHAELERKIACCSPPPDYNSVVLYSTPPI

[7] = molecular target: Serine/threonine-protein kinase OSR1 (Homo sapiens) (UniProt O95747); test: OXSR1 SGC Tm panel (DSF)
Serine/threonine-protein kinase OSR1 (Homo sapiens), sequence (O95747 2-527 limits assumed): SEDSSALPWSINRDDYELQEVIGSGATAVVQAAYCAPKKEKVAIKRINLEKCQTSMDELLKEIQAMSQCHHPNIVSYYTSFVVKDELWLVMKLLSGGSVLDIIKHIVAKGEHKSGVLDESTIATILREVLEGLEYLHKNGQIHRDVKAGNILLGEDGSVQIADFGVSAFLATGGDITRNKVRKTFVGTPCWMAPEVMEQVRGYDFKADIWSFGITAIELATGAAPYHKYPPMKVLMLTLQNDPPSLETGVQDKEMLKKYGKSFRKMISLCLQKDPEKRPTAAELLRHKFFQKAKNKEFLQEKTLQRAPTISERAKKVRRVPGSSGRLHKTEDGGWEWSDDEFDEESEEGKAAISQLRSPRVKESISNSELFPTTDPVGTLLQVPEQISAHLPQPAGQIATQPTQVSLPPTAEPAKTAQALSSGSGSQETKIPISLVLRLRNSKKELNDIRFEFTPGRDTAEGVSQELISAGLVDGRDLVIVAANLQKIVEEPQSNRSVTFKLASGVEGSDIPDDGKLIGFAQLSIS

[8] = molecular target: STE20/SPS1-related proline-alanine-rich protein kinase (Homo sapiens) (UniProt Q9UEW8); test: STK39 SGC Tm panel (DSF)
[9] = molecular target: T2, Transcription intermediary factor 1-alpha (Homo sapiens) (UniProt O15164); test: TIF1 SGC Tm panel (DSF)
T2 sequence (whole entry): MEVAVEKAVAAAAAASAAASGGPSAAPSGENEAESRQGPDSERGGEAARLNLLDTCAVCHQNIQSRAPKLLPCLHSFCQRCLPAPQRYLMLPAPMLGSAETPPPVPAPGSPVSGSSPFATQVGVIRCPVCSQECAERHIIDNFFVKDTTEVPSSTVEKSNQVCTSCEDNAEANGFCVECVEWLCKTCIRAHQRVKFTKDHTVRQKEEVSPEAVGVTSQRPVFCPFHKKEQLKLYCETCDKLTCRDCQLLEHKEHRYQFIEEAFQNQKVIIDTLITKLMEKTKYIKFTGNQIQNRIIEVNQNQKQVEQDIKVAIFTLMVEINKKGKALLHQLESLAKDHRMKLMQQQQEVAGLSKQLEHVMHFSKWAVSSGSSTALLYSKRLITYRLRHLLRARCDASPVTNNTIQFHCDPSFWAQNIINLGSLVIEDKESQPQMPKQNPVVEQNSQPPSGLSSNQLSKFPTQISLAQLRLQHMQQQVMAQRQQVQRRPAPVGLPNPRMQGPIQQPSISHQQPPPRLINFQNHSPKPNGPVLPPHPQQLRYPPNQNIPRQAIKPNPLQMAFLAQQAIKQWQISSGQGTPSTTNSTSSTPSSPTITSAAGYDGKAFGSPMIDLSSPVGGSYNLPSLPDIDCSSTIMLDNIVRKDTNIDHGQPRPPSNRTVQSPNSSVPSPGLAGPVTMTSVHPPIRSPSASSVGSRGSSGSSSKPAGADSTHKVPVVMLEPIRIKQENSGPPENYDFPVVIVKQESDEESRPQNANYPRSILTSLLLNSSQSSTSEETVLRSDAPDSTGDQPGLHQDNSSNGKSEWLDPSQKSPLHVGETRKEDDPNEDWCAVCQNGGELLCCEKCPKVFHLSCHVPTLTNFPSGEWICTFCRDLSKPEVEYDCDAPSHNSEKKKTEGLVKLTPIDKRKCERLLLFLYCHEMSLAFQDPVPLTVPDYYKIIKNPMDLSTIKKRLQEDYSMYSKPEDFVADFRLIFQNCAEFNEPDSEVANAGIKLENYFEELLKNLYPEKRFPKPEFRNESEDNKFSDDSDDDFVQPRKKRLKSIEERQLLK

[10] = molecular target: T3, Serine/threonine-protein kinase ULK3 (Homo sapiens) (UniProt Q6PHR2); test: ULK3 SGC Tm panel (DSF)
T3 sequence (whole entry): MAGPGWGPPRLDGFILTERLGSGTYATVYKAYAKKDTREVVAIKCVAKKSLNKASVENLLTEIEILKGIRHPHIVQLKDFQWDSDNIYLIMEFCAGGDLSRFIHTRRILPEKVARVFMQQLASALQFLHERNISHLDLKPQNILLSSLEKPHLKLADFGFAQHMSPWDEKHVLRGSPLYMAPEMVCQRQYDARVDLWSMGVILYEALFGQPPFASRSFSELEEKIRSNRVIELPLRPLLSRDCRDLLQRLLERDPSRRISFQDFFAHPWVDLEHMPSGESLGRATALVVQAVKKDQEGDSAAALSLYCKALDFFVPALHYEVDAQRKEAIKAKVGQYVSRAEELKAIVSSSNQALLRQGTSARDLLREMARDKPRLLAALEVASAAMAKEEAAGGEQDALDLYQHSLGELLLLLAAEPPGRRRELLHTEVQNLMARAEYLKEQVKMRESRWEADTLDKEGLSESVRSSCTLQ

Ephrin type-A receptor 2 (Homo sapiens), sequence (P29317 whole entry): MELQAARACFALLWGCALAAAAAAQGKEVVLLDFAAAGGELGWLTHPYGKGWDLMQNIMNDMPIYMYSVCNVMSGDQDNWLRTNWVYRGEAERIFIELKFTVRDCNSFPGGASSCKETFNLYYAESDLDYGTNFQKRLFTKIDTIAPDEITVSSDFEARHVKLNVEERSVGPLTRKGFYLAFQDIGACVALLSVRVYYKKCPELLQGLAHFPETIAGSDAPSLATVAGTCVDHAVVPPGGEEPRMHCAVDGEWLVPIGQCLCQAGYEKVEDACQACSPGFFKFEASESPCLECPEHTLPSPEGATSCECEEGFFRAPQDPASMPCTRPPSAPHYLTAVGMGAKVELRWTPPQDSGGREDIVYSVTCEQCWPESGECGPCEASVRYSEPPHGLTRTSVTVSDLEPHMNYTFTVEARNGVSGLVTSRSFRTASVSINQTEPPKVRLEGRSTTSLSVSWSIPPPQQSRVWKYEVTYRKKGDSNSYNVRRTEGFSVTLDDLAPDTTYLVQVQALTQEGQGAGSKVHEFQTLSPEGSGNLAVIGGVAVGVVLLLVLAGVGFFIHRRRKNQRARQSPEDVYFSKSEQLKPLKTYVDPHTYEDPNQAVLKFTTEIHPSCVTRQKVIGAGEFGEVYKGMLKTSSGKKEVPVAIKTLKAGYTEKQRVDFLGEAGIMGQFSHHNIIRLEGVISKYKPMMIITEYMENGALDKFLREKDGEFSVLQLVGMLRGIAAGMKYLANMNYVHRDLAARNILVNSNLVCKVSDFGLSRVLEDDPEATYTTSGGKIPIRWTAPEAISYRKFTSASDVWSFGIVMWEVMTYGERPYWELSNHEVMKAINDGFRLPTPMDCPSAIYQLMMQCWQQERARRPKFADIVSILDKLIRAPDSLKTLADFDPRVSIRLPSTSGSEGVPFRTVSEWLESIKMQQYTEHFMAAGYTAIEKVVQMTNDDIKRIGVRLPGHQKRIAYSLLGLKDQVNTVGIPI

| delta Tm Staurosporine positive control [1] | ΔTm [1] | delta Tm Staurosporine positive control [2] | ΔTm [2] | delta Tm Staurosporine positive control [3] | ΔTm [3] | delta Tm Staurosporine positive control [4] | ΔTm [4] | delta Tm Staurosporine positive control [5] | ΔTm [5] | delta Tm Staurosporine positive control [6] | ΔTm [6] | delta Tm Staurosporine positive control [7] | ΔTm [7] | delta Tm Staurosporine positive control [8] | ΔTm [8] | delta Tm Staurosporine positive control [9] | ΔTm [9] | delta Tm Staurosporine positive control [10] | ΔTm [10] | SMILES |
| --- | --- | --- | --- | --- | --- | --- | --- | --- | --- | --- | --- | --- | --- | --- | --- | --- | --- | --- | --- | --- |
| 7.67 | 0.2 | 9.28 | -0.281 | 1.14 | -0.0712 | 3.96 | 0.39 | 17.6 | 0.698 | 11.1 | -0.217 | 5.06 | 1.31 | 8.57 | 0.258 | 2.51 | 1.18 | 18.2 | 0.155 | C[C@H](NC(=O)c1cn(C2(C#N)CC2)cn1)C(=O)Nc1nc(-c2cccc(-c3ccn(C)n3)c2)cs1 |
| 7.67 | 0.202 | 9.28 | 0.564 | 1.14 | -0.0969 | 3.96 | 0.244 | 17.6 | 0.116 | 11.1 | -0.0497 | 5.06 | -0.0355 | 8.57 | 0.181 | 2.51 | 1.43 | 18.2 | 0.301 | COC[C@H](NC(=O)c1ccn(S(C)(=O)=O)c1)C(=O)Nc1nc(-c2cccc(-c3ccn(C)n3)c2)cs1 |
